From PubChem BioAssay AID179 (DTP/NCI, 2004) come the findings set out here.

As a reminder, the EC50 is the concentration at which the effect is half-maximal. One may read the IC50 as the concentration that inhibits the measured activity by half. The low end stands for higher potency, the high end for lower potency.

This assay relates to CEM cells HIV-1 protection, formazan growth assay. Description: NCI AIDS Antiviral Assay. The settings on record: for IC50: measured here: growth of uninfected CEM cells. Put shortly:
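Human CEM cells, uninfected and HIV-1-infected, received five drug concentrations, and growth was read by soluble formazan assay. Compounds giving at least 50% protection were retested; reproducible 100% protection defined confirmed active.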

Where “and” joins values, the source holds several entries; their conditions need not be identical. Equal entries are not always repeated. Calls of active or inactive are those of the source.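 How the source made its calls: active means compounds giving half or more protection of infected cells from virus-caused growth loss, again on retest; inactive means the rest.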 Some results are limits rather than exact numbers.

Take `On1c(-c2ccccc2)c(-c2ccccc2N2CCCC2)c2ccccc21`: the outcome was inactive. On to `Cc1c(O)c(C)c2c(C)cn(C(=O)C(C)(C)C)c2c1C`, for which the EC50 is greater than 200 µM and the 50% inhibitory concentration (IC50) was determined as 30.2 µM. For `COc1c(CCl)cc(-c2cc(=O)c3ccccc3s2)cc1CCl`, in that order: greater than 200 µM and greater than 200 µM. On the same counts, the results for `O=C(CCc1cccc(O)c1)NCCc1ccc(O)cc1` are 123 µM and greater than 200 µM. For `CCOC(=O)C(NC(=O)OC(C)(C)C)C(=O)OCC`, in that order: greater than 200 µM and greater than 200 µM. As to `NC(CCCC(N)P(=O)(O)O)C(=O)O` (stereo not given), the outcome was inactive. The same measure, in the same setting: the entry for `Nc1ncnc2c1ncn2CC(O)CO` (stereo not given) is “inactive”. Regarding `Cc1c(C#N)c2n(c1C)CCCC(=O)N2`, the EC50 is greater than 219 µM and the half-maximal inhibitory concentration (IC50) was greater than 219 µM. As for `COc1ccc2c(c1)C(=O)CC(c1ccccc1OC)O2` (stereo not given), the EC50 is greater than 200 µM and the half-inhibitory concentration (IC50) was 34.7 µM.

For the compound `CCSc1nnc(CSc2nc(-c3ccccc3)c(-c3ccccc3)[nH]2)n1-c1ccccc1`, the EC50 is greater than 21.4 µM and the 50% inhibitory concentration (IC50) was greater than 21.4 µM. As to `CC(=O)Nc1nc(Cl)cc(NCC2(CO)CCC2)n1`, the EC50 is greater than 200 µM and the 50% inhibitory concentration (IC50) was greater than 200 µM.

As for `O=C1/C(=N\O)S(=O)(=O)c2ccccc21`, the outcome was inactive. Still for that read-out and setting: under `CC(=O)OC1(C)C(=O)OC1(C)C(C)=O` (stereo not given) stands “inactive”.

`COc1ccc(/C=C(\NC(=O)c2ccccc2)C(=O)NN(C)c2ccnc3cc(Cl)ccc23)cc1OC`: the EC50 is greater than 200 µM and the concentration for half-maximal inhibition (IC50) turned out to be 56.2 µM. For `NC(N)=Nc1ccc(-c2ccc(N=C(N)N)cc2)cc1`, in that order: greater than 200 µM and 25.1 µM. For `CCOC(=O)c1ccc(N=Cc2ccc(N(CCC#N)S(=O)(=O)c3ccccc3)cc2C)cc1`, in that order: greater than 75.9 µM and greater than 75.9 µM.

For the compound `c1ccc2c(c1)CC1COc3ccccc3C1O2` (stereo not given), the EC50 is greater than 200 µM and the concentration for half-maximal inhibition (IC50) is 70.8 µM.

With `Cc1cc(Cl)nc2nc(Cl)c(N)cc12`, the outcome was inactive. For the compound `C[C@H]1CCC/C=C/[C@@H]2C[C@H](OC(=O)CN(C)C)C[C@H]2[C@H](O)/C=C/C(=O)O1`, the EC50 is greater than 2 µM and the half-maximal inhibitory concentration (IC50) amounted to 0.339 µM.

`CCOC1SC(SC)=NN1C(=O)C(OC(C)=O)C(OC(C)=O)C(OC(C)=O)C(OC(C)=O)C(=O)N1N=C(SC)SC1OCC` (stereo not given): the result was inactive.

As for `COC(=O)C(CC1CC(OC(C)=O)c2[nH]c3ccccc3c2CCN(C(C)=O)C1)C(=O)OC` (stereo not given), the EC50 was greater than 135 µM and the IC50 was greater than 135 µM. As for `CC1CCC(=O)NCCCCC(=O)N1` (stereo not given), the EC50 is greater than 36.3 µM and the IC50 is greater than 36.3 µM. Take `O=C(O)CN(c1ccccc1)S(=O)(=O)c1ccc([N+](=O)[O-])cc1`: the result was inactive.

`Oc1cc(F)cc2cccnc12`: the outcome was inactive. For `O=C1NC2NC(=O)NC2N1` (stereo not given), the EC50 is greater than 479 µM and the IC50 is greater than 479 µM.

On to `CCCCc1cc(=O)oc2c3c(c4c(c12)OC(C)(C)C=C4)O[C@H](C)[C@@H](C)[C@H]3O`, for which the EC50 was greater than 63.1 µM and the IC50 came to 15.5 µM.

In the case of `Fc1ccc(-c2sc(-c3ccsc3)cc2Cc2ccsc2)cc1`, the outcome was inactive. The same measure, in the same setting: under `COc1cc2c(cc1Oc1c(Oc3c(O)c(OC)cc4c3C(CC(C)C)N(C)CC4)c(OC)cc3c1C(CC(C)C)N(C)CC3)C(CC(C)C)N(C)CC2` (stereo not given) stands “inactive”. As to `Cc1ccc(C)c(NC(=O)/C(=N\NC(N)=S)C(C#N)c2ccccc2)c1` (stereo not given), the EC50 was greater than 19.5 µM and the IC50 is greater than 19.5 µM. On to `O=[N+]([O-])c1ccc(N=Cc2ccc(Cl)cc2)cc1`, for which the EC50 is greater than 200 µM and the half-inhibitory concentration (IC50) was found to be 9.77 µM. On the same counts, the results for `O=c1cc(O)cc2n1CCC2` are greater than 1660 µM and greater than 1660 µM. On the same counts, the results for `Cc1nc2cc(Nc3ccccc3C(=O)O)ccc2s1` are greater than 631 µM and 158 µM. On the same counts, the results for `CC1(C)OC2OC3C(I)CN(C(=O)OCc4ccccc4)C3C2O1` (stereo not given) are greater than 200 µM and 110 µM. Take `CCOC(=O)/C(=C\c1cccc(Cl)c1)P(=O)(OCC)OCC`: the EC50 is greater than 380 µM and the concentration for half-maximal inhibition (IC50) came out at 81.3 µM. In the case of `O=c1[nH]c2ccccc2nc1/C=C/NC(=S)Nc1ccccc1`, the EC50 is greater than 200 µM and the concentration for half-maximal inhibition (IC50) was greater than 200 µM. In the case of `CN(C)Cc1cc(C23CC4CC(CC(C4)C2)C3)cc(-c2ccccc2)c1O`, the result was inactive. With `O=C1CSc2ncccc2N1c1ccc([N+](=O)[O-])cn1`, the EC50 was greater than 200 µM and the 50% inhibitory concentration (IC50) is greater than 200 µM. On to `O=C1CC2(CCNCC2)C(=O)N1N1CCCCC1`, for which the EC50 was greater than 200 µM and the half-inhibitory concentration (IC50) is greater than 200 µM. On to `CCCCCC12OCC(C)(C)N1O2` (stereo not given), for which the EC50 is greater than 200 µM and the IC50 was found to be 126 µM. For `CCCc1nc(N)nc(C(=O)Nc2cccc(C(F)(F)F)c2)c1CC`, in that order: greater than 708 µM and greater than 708 µM. With `O=C1CC(=O)N(CCc2ccncc2)C(=O)N1CCc1ccncc1`, the result was inactive and the IC50 was greater than 200 µM. As for `COC(=O)C1(NC(=O)C(CC(=O)OCc2ccccc2)NC(=O)OCc2ccccc2)CCCCCCC1` (stereo not given), the EC50 was greater than 200 µM and the IC50 stood at 11.7 µM. On the same counts, the results for `Cn1c(=O)oc2cc(C(=O)CSC(=S)N3CCCCCC3)ccc21` are greater than 200 µM and 135 µM. For `COc1ccccc1N1C(=O)/C(=C\c2cc(OC)c(OC)c(OC)c2)S(=O)(=O)C1c1ccccc1` (stereo not given), in that order: greater than 200 µM and 38 µM. For `CC(C)[C@@H]1ON1C(C)c1ccccc1` (stereo not given in full), in that order: greater than 200 µM and greater than 200 µM. With `O=S(O)c1cc(Cl)cc(Cl)c1O`, the result was inactive.

Take `Cc1occc1C(=S)Nc1ccc(Cl)c(C(=O)OC(C)(C)C)c1`: the concentration for a half-maximal effect (EC50) was 0.0339 µM and the IC50 was 9.33 µM. With `O=P1(c2ccccc2)C=C(c2ccccc2)NC(c2ccccc2)=C1`, the outcome was inactive. In the case of `CCOC(=O)CC1(O)C(=O)N(Cc2ccccc2)c2ccccc21` (stereo not given), the EC50 is greater than 200 µM and the half-inhibitory concentration (IC50) was greater than 200 µM. On to `COc1cc(CC(C(=O)OC(C)(C)C)C(=O)OC(C)(C)C)c(NC(C)=O)c(OC)c1OC`, for which the EC50 is greater than 200 µM and the half-inhibitory concentration (IC50) was greater than 200 µM. As to `c1ccc(-c2cc(-c3cccs3)c(-c3cccs3)s2)cc1`, the EC50 is greater than 200 µM and the IC50 amounted to 36.3 µM. For `COC(=O)C1CC=C(SC(=O)c2ccccc2)N1C(=O)c1ccccc1` (stereo not given), in that order: greater than 200 µM and greater than 200 µM. On the same counts, the results for `Cn1c(=O)c2[nH]cnc2n(CC(=O)O)c1=O` are greater than 1120 µM and greater than 1120 µM. In the case of `O=C(N=c1nc2ccccn2s1)c1ccccc1`, the EC50 is greater than 53.7 µM and the IC50 is greater than 53.7 µM. Turning to `NC1CC(=O)c2c(Cl)sc(Cl)c21` (stereo not given), the EC50 is greater than 200 µM and the IC50 was 3.47 µM. For `Cc1c(O)c2cccc(-c3ccccc3)c2oc1=O`, in that order: greater than 200 µM and 132 µM. In the case of `COc1nc(C)nc2c1ncn2Cc1ccccc1`, the EC50 was greater than 200 µM and the IC50 was greater than 200 µM.

As to `CCN(CC)CCNc1nc2c([nH]1)c(=O)n(C)c(=O)n2C`, the EC50 is greater than 759 µM and the half-maximal inhibitory concentration (IC50) came to 219 µM. In the case of `CC(=O)OC1COC(n2c(N)c(C#N)c(-c3ccccc3)c(C#N)c2=S)C(OC(C)=O)C1OC(C)=O` (stereo not given), the EC50 was greater than 200 µM; the IC50 was 33.9 µM and 36.3 µM. `O=C1C(Cl)=C(Cl)C(=O)N1c1ccccc1Cl`: the outcome was inactive. Consider `NC(=O)c1c([N+](=O)[O-])cc(C(F)(F)F)cc1[N+](=O)[O-]`, for which the outcome was inactive. Regarding `CC1CC/C(=C\c2ccc(N(C)C)cc2)C(=O)/C1=C/c1ccc(N(C)C)cc1` (stereo not given), the EC50 is greater than 100 µM and the IC50 was found to be 60.3 µM.

Turning to `C1CSC(=[N+]2CC[N+](=C3SCCS3)CC2)S1`, the outcome was inactive. On to `C[C@]12CC[C@@H]3c4cc(I)c(O)cc4CC[C@H]3[C@@H]1CC[C@@H]2O`, for which the EC50 is greater than 200 µM and the IC50 came out at 2.09 µM.

With `C(=C\c1ccccc1)/C[P+](c1ccccc1)(c1ccccc1)c1ccccc1`, the EC50 was greater than 200 µM and the IC50 came out at 0.525 µM. On the same counts, the results for `CSc1nc(=S)[nH]c2c1c(C)nn2-c1ccccc1` are greater than 200 µM and 28.8 µM.

In the case of `Nc1nnc(-c2ccco2)c(-c2ccco2)n1`, the EC50 is greater than 200 µM and the IC50 amounted to 186 µM.

With `S=C1Nc2ccccc2SC1c1ccccc1` (stereo not given), the EC50 is greater than 200 µM and the IC50 was determined as 31.6 µM.

Take `O=C1Nc2ccc(Cl)cc2C(c2ccccc2Cl)=NC1O` (stereo not given): the outcome was inactive. In the case of `FC(F)(Oc1ccc2oc3ccccc3c2c1)c1nc2ccccc2o1`, the EC50 is greater than 200 µM and the half-inhibitory concentration (IC50) was determined as 33.9 µM. In the case of `OCC(O)C(O)c1nn(-c2ccccc2)c2nc3cc(Cl)c(Cl)cc3nc12` (stereo not given), the outcome was inactive.

As to `Cc1ncc(COP(=O)(O)O)c(/C=C2\SC(=S)NC2=O)c1O`, the EC50 is greater than 200 µM and the IC50 is greater than 200 µM.

For the compound `CCSC(=O)N1c2ccc(OC)cc2C=CC1C#N` (stereo not given), the EC50 is greater than 0.692 µM and the concentration for half-maximal inhibition (IC50) was found to be 0.0407 µM. In the case of `NCC1OC(OC2C(CO)OC(OC3C(O)C(N)CC(N)C3OC3OC(CN)C(O)C(O)C3N)C2O)C(N)C(O)C1O` (stereo not given), the result was inactive. Consider `C=C1CCC(OC(C)=O)C2(C)C(OC(C)=O)CC3OC3(C)C2C(OC(C)=O)C2C(C)C(=O)OC2C1Cl` (stereo not given), for which the EC50 is greater than 200 µM and the IC50 is greater than 200 µM. Consider `COC1(OC)CCCc2c1no[n+]2[O-]`, for which the EC50 is greater than 200 µM and the half-inhibitory concentration (IC50) was greater than 200 µM.

`CCOP(=O)(OCC)/C(C#N)=C/c1nc[nH]c1C`: the EC50 is greater than 200 µM and the IC50 was greater than 200 µM. Regarding `C/C=C(\N=C=S)C(=O)OC1C(COC(C)=O)OC([C@]2(O)CC(=O)C(=N)C(C(=O)O)=C2O)C(O)C1OC1CC(OC)C(O)([C@@H](C)OC(=O)[C@@H](C)CC)C(C)O1` (stereo not given in full), the outcome was inactive.
